“Also recorded” adds a separate entry of the source.
How the values were obtained:
E-selectin (E-COS) = test: LS 180 cell adhesion to COS cells transfected with full length E-selectin (E-COS); format: cell-based; details: 0.5 mM
Experimental: The effect of inositols on selectin-dependent cell adhesion was assessed using several in vitro assay systems. In the first, a colon cancer cell line, LS 180, was chosen because it binds to all three selecting.
COS-1 cells were transfected as described (Seed, B., et al., Proc. Natl. Acad. Sci., U.S.A., 84:3365, 1987; Aruffo, A., Current Protocols In Molecular Biology, eds. supra, 1992) with pCDM7/pCDM8 expression vectors containing the full-length E-, P- and L-selectin cDNA. Transfected COS-1 cells were seeded on gelatin coated coverslips.

[1] = target: T1, P-selectin-lg fusion protein (Homo sapiens, UniProt P16109); test: Competition ELISA: binding of P-selectin-Ig to immobilized BSA-sLe^x; details: for IC50: read-out: IC50, P-selectin binding
T1 construct: Each selectin-lg contains the lectin domain, epidermal growth factor domain, and one (L-selectin-lg), two (P-selectin-lg) or six (E-selectin-lg) complement regulatory repeats; made in house
Excerpt: (§1) Selectin-lg fusion proteins are recombinant chimeric molecules containing extracellular regions of selectins coupled to the hinge, CH2, and CH3 regions of human IgG1 (Aruffo, A., et al., Cell, 67:35, 1991; Walz, G., et al., Science, 250:1132, 1990). Each selectin-lg contains the lectin domain, epidermal growth factor domain, and one (L-selectin-lg), two (P-selectin-lg) or six (E-selectin-lg) complement regulatory repeats of the parent molecules. DNAs encoding selectin-Ig inserted in pCDM7 allowed transient expression of recombinant proteins in COS cells as previously described (Seed, B., et al., Proc. Natl. Acad. Sci., U.S.A., 84:3365, 1987; Aruffo, A., Current Protocols In Molecular Biology, eds. Ausubel, F. M., et al, 16:13.1, Greene Publishing Associates and Wiley-lnterscience, New York, N.Y., 1992). These DNAs were also ligated into pNUT (Palmiter, R. D., et al, Cell, 50:435, 1987) for amplification and stable expression in BHK cells. The fusion proteins were affinity purified from culture media using protein A (Pierce Chemical Company, Rockford, Ill.) or protein G (Pharmacia, Piscataway, N.J.) Sepharose, as previously described (Aruffo, A., et al., Cell, 67:35, 1991; Aruffo, A., Current Protocols In Molecular Biology, eds. Ausubel, F. M., et al, supra, 1992). Competition binding ELISAs using P- and E-selectin-lg were performed essentially as described (Nelson, R. M., et al., J. Clin. Invest., 91:1157, 1993), except that the assay buffer was 20 mM HEPES pH 7.4, 150 mM NaCl, 2 mM CaCl2, and 0.25 mM thimerosal, containing 10 mg/ml BSA, protease-free, (Miles Inc., Kankakee, Ill.). Selectin concentrations were from 10 to 30 nM. […] To increase L-selectin binding, an assay similar to that previously described was used (Foxall, C., et al., J. Cell Biol., 117:895, 1992), in which the L-selectin-lg (10-20 nM) was allowed to form aggregates with HRP-conjugated anti-lg antibody for 30 minutes prior to addition of inositols and incubation on the BSA-sLe^x -coated plate. IC50 values were calculated by fitting binding data to the equation: fraction of maximal binding=IC50 […] using nonlinear least squares analysis software (Origin, Microcal Inc, Northampton, Mass.). InsP6 (dodecasodium salt), InsS6 (hexapotassium salt), myo-inositol 1 monophosphate (cyclohexylammonium salt), and myo-inositol were from Sigma Chemical Company (St. Louis, Mo.). Stock solutions were prepared daily in 0.9% NaCl and sterilized by 0.22 μm filtration. InsP6 solutions were adjusted at pH 7.4 with HCl.
(§2) L-, P-, or E-selectin-lg fusion proteins were incubated for 2-3 hours on microtiter plates coated with the neoglycoprotein BSA-sLe^x, the plates washed, and bound selectin-lg was detected using a peroxidase-conjugated antibody directed against the lg portion and a chromogenic substrate. To determine blocking activity, solution-phase lnsP6 (.circle-solid.), InsS6 (.largecircle.), or inositol (.box-solid.) at the indicated concentrations were added to the solutions containing selectin-Ig fusion proteins prior to transfer to microtiter plates (competition ELISA).

[2] = system: PMN within the peritoneal cavity; test: Zymosan-induced peritoneal inflammation, PMN accumulation; format: in vivo, mice (Balb/c); details: mice
Experimental: Mice (Balb/c males, 4-5 weeks old, 20-24 grams) were injected i.p. with 1 ml of 3% thioglycollate broth (lot #622462, Clinical Standard Laboratories, Inc., Rancho Dominguez, Calif.) left panel, or 0.5 mg of zymosan (Sigma) in 1 ml of sterile, pyrogen-free saline (Abbott Laboratories, North Chicago, Ill.), (FIG. 4, right panel). Control animals were injected i.p. with 1 ml of sterile pyrogen-free saline. After 40 and 80 min the animals received i.v. injections of 0.2 ml of sterile saline with or without InsP6 (total of 80 μmol/kg) or inositol (400 μmol/kg). Mice were sacrificed at 120 min and PMN within the peritoneal cavity were collected by lavage with 10 ml of ice-cold PBS containing 10 U/ml of heparin. After red blood cell lysis, the cells were counted in a hemocytometer (2 separate counts per sample, in triplicate). The percentage of PMN was assessed by counting cytospin preparations (two counts per slide, 300 cells per count) stained with Dif-Quick stain (Baxter, McGaw Park, Ill). Data are expressed as the mean ±s.d. of three separate experiments, with 5-6 animals per group in each experiment except for the group injected with saline i.p. that was constituted by 2 animal per experiment. […]

[3] = system: PMN within the peritoneal cavity; test: Thioglycollate-induced peritoneal inflammation, PMN accumulation; format: in vivo, mice (Balb/c); details: mice
[4] = target: T2, E-selectin-lg fusion protein (Homo sapiens, UniProt P16581); test: Competition ELISA: binding of E-selectin-Ig to immobilized BSA-sLe^x; details: BSA-sLe^x competition ELISA
T2 construct: Each selectin-lg contains the lectin domain, epidermal growth factor domain, and one (L-selectin-lg), two (P-selectin-lg) or six (E-selectin-lg) complement regulatory repeats; made in house
Excerpt: as §1, §2

T2 sequence (P16581 with tags, fused parts or gaps limits assumed): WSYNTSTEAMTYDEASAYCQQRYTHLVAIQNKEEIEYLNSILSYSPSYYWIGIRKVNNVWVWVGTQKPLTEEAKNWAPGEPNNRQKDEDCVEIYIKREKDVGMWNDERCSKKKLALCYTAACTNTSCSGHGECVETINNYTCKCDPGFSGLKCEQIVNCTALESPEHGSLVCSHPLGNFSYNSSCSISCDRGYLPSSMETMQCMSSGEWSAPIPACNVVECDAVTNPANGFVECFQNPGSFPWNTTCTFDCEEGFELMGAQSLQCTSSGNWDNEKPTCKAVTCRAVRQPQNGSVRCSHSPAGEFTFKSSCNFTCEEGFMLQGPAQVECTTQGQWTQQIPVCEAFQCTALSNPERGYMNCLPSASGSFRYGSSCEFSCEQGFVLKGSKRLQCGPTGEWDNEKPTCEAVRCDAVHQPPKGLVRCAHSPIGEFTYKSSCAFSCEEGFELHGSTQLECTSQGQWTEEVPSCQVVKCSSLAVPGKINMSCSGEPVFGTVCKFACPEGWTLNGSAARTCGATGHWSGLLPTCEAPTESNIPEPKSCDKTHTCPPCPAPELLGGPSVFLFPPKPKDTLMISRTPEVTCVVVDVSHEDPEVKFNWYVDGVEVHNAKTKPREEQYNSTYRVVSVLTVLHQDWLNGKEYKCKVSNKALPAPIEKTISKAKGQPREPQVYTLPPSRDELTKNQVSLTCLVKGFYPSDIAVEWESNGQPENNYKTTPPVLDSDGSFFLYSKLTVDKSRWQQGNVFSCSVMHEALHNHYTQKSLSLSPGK
T1 sequence (P16109 with tags, fused parts or gaps limits assumed): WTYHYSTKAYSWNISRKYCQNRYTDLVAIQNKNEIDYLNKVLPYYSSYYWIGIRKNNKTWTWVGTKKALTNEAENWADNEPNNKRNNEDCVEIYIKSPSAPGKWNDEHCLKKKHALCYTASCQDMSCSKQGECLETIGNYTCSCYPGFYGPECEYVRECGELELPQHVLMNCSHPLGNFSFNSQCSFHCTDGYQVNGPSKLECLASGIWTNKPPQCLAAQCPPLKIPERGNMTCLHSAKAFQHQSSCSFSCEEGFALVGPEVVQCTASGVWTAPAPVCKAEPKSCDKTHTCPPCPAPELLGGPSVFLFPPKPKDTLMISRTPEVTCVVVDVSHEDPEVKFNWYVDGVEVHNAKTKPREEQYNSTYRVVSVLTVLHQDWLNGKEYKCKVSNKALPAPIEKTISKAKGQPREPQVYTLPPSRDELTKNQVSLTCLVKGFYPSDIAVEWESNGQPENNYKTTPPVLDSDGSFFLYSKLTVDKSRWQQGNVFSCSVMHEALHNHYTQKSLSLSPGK

blocking of P-selectin-Ig binding ([1]; BSA-sLe^x competition ELISA) | SMILES | inhibition of LS 180 cell adhesion to E-COS (E-selectin (E-COS)) | IC50 ([1]; BSA-sLe^x competition ELISA) | blocking of P-selectin-Ig at reduced Ca^2+ ([1]; Ca^2+ reduced to 0.15 mM) | effect in zymosan-induced peritoneal inflammation ([2]; relative to thioglycollate model) | inhibition of PMN accumulation, single subcutaneous injection ([3]; 40-100 μmol/kg s.c. 3 min after thioglycollate) | reduction in PMN recovered from the peritoneal cavity ([3]; i.v. at 40 and 80 min, total 80 μmol/kg, PMN at 120 min, 3 experiments) | inhibition of E-selectin-Ig binding [4] | inhibition of PMN accumulation, zymosan model ([2]; 400 μmol/kg, 1 experiment) | inhibition of PMN accumulation, thioglycollate model ([3]; 400 μmol/kg, 1 experiment)
 | O=P(O)(O)O[C@H]1[C@H](OP(=O)(O)O)[C@@H](OP(=O)(O)O)[C@H](OP(=O)(O)O)[C@@H](OP(=O)(O)O)[C@H]1OP(=O)(O)O [InsP6, myo-inositol hexakisphosphate] | < 5% | 0.16 ± 0.04 mM | not enhanced | equally effective | 46-59% | 58±3% | failed to inhibit the binding of E-selectin-lg at concentrations up to 5 mM; also recorded: did not block E-selectin-lg binding |  | 
 | O=S(=O)(O)O[C@H]1[C@H](OS(=O)(=O)O)[C@@H](OS(=O)(=O)O)[C@H](OS(=O)(=O)O)[C@@H](OS(=O)(=O)O)[C@H]1OS(=O)(=O)O [InsS6, myo-inositol hexakissulfate] |  | 3.2 ± 0.5 mM |  |  |  |  | failed to inhibit the binding of E-selectin-lg at concentrations up to 5 mM | 31±11% | 33±13%
not myo-isositol, blocked binding | O[C@H]1[C@H](O)[C@@H](O)[C@H](O)[C@@H](O)[C@H]1O [myo-inositol, reference compound] |  |  |  |  |  |  |  |  | 

Source: patent US5827837A, “Polyanion anti-inflammatory agents” (priority 1996, dated 1998)
